Legend:
Assay type in all cases: cell-based, human
[1] = test system: caspase-3,7; experiment: Caspase-3,7 activation (CaspaTag/FLICA), flow cytometry; details: A549, 24 h
Procedure: (§1) 2.0×10^5 A549 cells were seeded in 6-well plates in a complete medium and treated with the complex 3. Assay results were detected by flow cytometry on a BD FACSCanto II flow cytometer. Data were analyzed using BD FACSDiva v.8.0.1 software (BD Biosciences) unless otherwise indicated. Tumor cells were treated for 72 h with complex 3, then stained for 15 minutes with FITC Annexin-V (Thermo Fisher Scientific) and 7AAD (BD Pharmingen, Milan, Italy). Activated caspase-3,7 was detected using the CaspaTag Caspase-3,7 assay (Merck Millipore) after an incubation of 24 h with complex 3. For B-cell lymphoma/leukemia-2 protein (Bcl-2) and Bcl-2 associated x protein (Bax) analysis, cells were treated for 72 h with C3, then fixed and permeabilized (FIX & PERM Cell Fixation & Cell Permeabilization Kit, Life Technologies). […] The distribution of cells in different cell cycle phases was quantified using ModFit LT 4.0 software (Verity Software House, Topsham, ME, USA) (See: Sulaiman, A. A. A.; Casagrande, N.; Borghese, C.; Corona, G.; Isab, A. A.; Ahmad, S.; Aldinucci, D.; Altaf M. Design, Synthesis, and Preclinical Activity in Ovarian Cancer Models of New Phosphanegold(I)—N-Heterocyclic Carbene Complexes. J Med Chem 2022, 65, 14424-14440, which is incorporated herein by reference in its entirety). […]

[2] = test system: Bcl-2; experiment: Bcl-2 expression, flow cytometry; details: A549, 72 h
Procedure: as §1

[3] = test system: TrxR; experiment: Thioredoxin reductase activity in treated cell lysates; details: A549 cells treated 24 h
Procedure: Cells were treated with complex 3 (24 h) and then lysed in 50 mM Tris-HCl pH 7.6, 0.1% Triton X-100, 0.9% NaCl to obtain the TrxR activity. TrxR (EC 1.8.1.9) was assayed using the Thioredoxin Reductase Assay Kit (Sigma-Aldrich). Enzyme activity was determined by reading the absorbance at 412 nm using a spectrophotometer (Biomate 3 Thermo Spectronic, Thermo Electronic Corporation, Monza, Italy) and normalized to the protein concentration, determined with the Bio-Rad protein assay (Protein Assay Dye Reagent Concentrate, Bio-Rad Laboratories, Segrate, Italy).

[4] = test system: ALDH1; experiment: ALDH1 enzymatic activity (Aldeflour), flow cytometry; details: A549, 24 h
Procedure: as §1

[5] = test system: CD133; experiment: CD133 surface expression, flow cytometry; details: A549, 24 h
Procedure: as §1

[6] = test system: CD44; experiment: CD44 surface expression, flow cytometry; details: A549, 24 h
Procedure: as §1

[7] = test system: NOTCH1; experiment: NOTCH1 surface expression, flow cytometry; details: A549, 24 h
Procedure: as §1

[8] = test system: A549 cells; experiment: Crystal violet staining cell viability; details: A549, 72 h
Procedure: 2.5×10^3 (PC3, MG63, MCF7) or 4.0×10^3 (A2780, A2780cis, A549) cells were seeded in 96-well microplates in 100 μL culture medium. Cells, allowed to adhere for 24 h, were then treated in triplicate with increasing concentrations of gold compounds. Cisplatin was included as a reference drug. Cell viability was evaluated using 3-(4,5-dimethylthiazol-2-yl)-2,5-diphenyltetrazolium bromide (MTT) assay (Sigma-Aldrich) after 72 h of treatment. Half maximal inhibitory concentrations (IC50), IC25, and IC75 were calculated using the CalcuSyn software version 2 (Biosoft, Ferguson, MO, USA) (See: Chou, T. C.; Talalay, P. Quantitative Analysis of Dose-Effect Relationships: The Combined Effects of Multiple Drugs or Enzyme Inhibitors. Adv. Enzyme Regul. 1984, 22, 27-55, which is incorporated herein by reference in its entirety). Fold resistance was calculated as the ratio of the IC50 of the A2780cis to that of the parental cell line A2780. Alternatively, cell viability was assayed by crystal violet staining (See: Feoktistova, M.; Geserick, P.; Leverkus, M. Crystal Violet Assay for Determining Viability of Cultured Cells. Cold Spring Harb Protoc 2016, 2016, pdb.prot087379, which is incorporated herein by reference in its entirety). […]

Structure (SMILES): CC(C)c1cccc(C(C)C)c1-n1ccn(-c2c(C(C)C)cccc2C(C)C)[c]1=[Au-][P+](CCNCC[P+]([Au-]=[c]1n(-c2c(C(C)C)cccc2C(C)C)ccn1-c1c(C(C)C)cccc1C(C)C)(C1CCCCC1)C1CCCCC1)(C1CCCCC1)C1CCCCC1 [Complex 3, [(Au(IPr))2(C28H24P2)](PF6)2]
- caspase-3,7 activation [1]: activated
- anti-apoptotic BCL-2 expression [2]: down-regulated
- TrxR enzymatic activity [3]: not modified
- ALDH1 enzymatic activity [4]: reduced
- CD133 expression levels [5]: reduced
- CD44 expression [6]: decreased
- NOTCH1 expression [7]: decreased in a dose-dependent manner
- growth inhibition by crystal violet staining [8]: growth inhibition

— patent publication US20250222009A1, “DINUCLEAR GOLD(I) COMPLEXES FOR TREATING CANCER” (KING FAHD UNIVERSITY OF PETROLEUM AND MINERALS, priority 2024, published 2025)
